Results reported in patent US20250092065A1, “2-(INDAZOL-5-YL)-6-(PIPERIDIN-4-YL)-1,7-NAPHTHYRIDINE DERIVATIVES AND RELATED COMPOUNDS AS MODULATORS FOR SPLICING NUCLEIC ACIDS AND FOR THE TREATMENT OF PROLIFERATIVE DISEASES” (REMIX THERAPEUTICS INC., priority 2022, published 2025).
pIC50: −log10 of the molar value. Where two headings read alike, the source gives them in different places.

How the values were obtained:
[1] = test system: HTT mRNA; assay: RT-qPCR splicing assay, HTT mRNA canonical (CJ) and alternative (AJ) junction; format: cell-based, human; details: Homo sapiens; for AC50: HTT alternative junction mRNA increase, read-out: HTT AJ (increase in alternative junction mRNA, AC50)
How it was run: (§1)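 Both isoforms, CJ and AJ, read by qPCR from crude lysates of treated A673 or K562 cells; 24 h, 37 °C, maximum 10 uM. Normalization: housekeeper ΔCt, then DMSO ΔΔCt.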

[2] = test system: MYB mRNA; assay: RT-qPCR splicing assay, MYB mRNA canonical (CJ) and alternative (AJ) junction; format: cell-based, human; details: Homo sapiens; for AC50: MYB alternative junction mRNA increase, read-out: MYB AJ (increase in alternative junction mRNA, AC50)
How it was run: as §1

[3] = test system: SMN2 mRNA; assay: RT-qPCR splicing assay, SMN2 mRNA; format: cell-based, human; details: Homo sapiens, canonical junction qPCR panel, Table 4; read-out: SMN2 IC50 (decrease in CJ mRNA levels)
How it was run: as §1

[4] = test system: Target C; assay: RT-qPCR canonical junction panel assay, Target C mRNA; format: cell-based; details: Table 4, read-out: Target C IC50 (decrease in CJ mRNA levels)
Protocol: Compounds described herein were used to modulate RNA transcript abundance in cells. The expression of a target mRNA was measured by detecting the formation of an exon-exon junction in the canonical transcript (CJ). A compound mediated exon-inclusion event was detected by observing an increase in formation of a new junction with an alternative exon (AJ). Real-time qPCR assays were used to detect these splicing switches and interrogate the potency of various compounds towards different target genes. A high-throughput real time quantitative PCR (RT-qPCR) assay was developed to measure these two isoforms of the mRNA (CJ and AJ) for exemplary genes, such as HTT, SMN2, and MYB, together with a control housekeeping gene, GAPDH or GUSB or PPIA, used for normalization. Briefly, the A673 or K562 cell line was treated with various compounds described herein (e.g., compounds of Formula (I)). After treatment, the levels of the HTT, MYB, or SMN2 mRNA targets were determined from each sample of cell lysate by cDNA synthesis followed by qPCR.
The data analysis was performed by first determining the ΔCt vs the housekeeper gene. This ΔCt was then normalized against the DMSO control (ΔΔCt) and converted to RQ (relative quantification) using the 2^(−ΔΔCt) equation. The RQ were then converted to a percentage response by arbitrarily setting an assay window of 3.5 and 4.0 ΔCt for HTT-CJ and MYB-CJ respectively and an assay window of 9 and 3 ΔCt for HTT-AJ and MYB-AJ in 96 well format (50,000 K562 cells/well and 15,000 A673 cells per well) and an assay window of 3 and 4 ΔCt for HTT-CJ and MYB-CJ respectively and an assay window of 5 and 3 ΔCt for HTT-AJ and MYB-AJ respectively in 384 well format (8,000 K562 cells/well example). […] The percentage response was then fitted to the 4 parametric logistic equation to evaluate the concentration dependence of compound treatment. The increase in AJ mRNA is reported as AC50 (compound concentration having 50% response in AJ increase) while the decrease in CJ mRNA levels is reported as IC50 (compound concentration having […] in CJ decrease).
Additional studies were carried out for a larger panel of genes using the protocol provided above. The junction between flanking upstream and downstream exons was used to design canonical junction Qpcr assays. At least one of the forward primer, reverse primer or the CY5-labeled 5′ nuclease probe (with 3′ quencher such as ZEN/Iowa Black FQ) was designed to overlap with the exon junction to capture the CJ Mrna transcript. BLAST was used to confirm the specificity of the probeset and parameters suCH As melting temperature, GC content, amplicon size, and primer dimer formation are considered during their design. Data for the decrease in CJ Mrna levels for four exemplary genes (HTT, SMN2, MYB, and Target C) analyzed in this panel are reported as IC50 (compound concentration having […] in CJ decrease).

[5] = test system: K562 cells; assay: Cell Titer Glo 2.0 cell viability (toxicity) assay, K562; details: 500 cells/well, 72 hours
[6] = RT-qPCR, HTT canonical junction mRNA decrease, read-out: HTT CJ (decrease in canonical junction mRNA, IC50)
[7] = canonical junction qPCR panel, Table 4, read-out: HTT IC50 (decrease in CJ mRNA levels)
[8] = RT-qPCR, MYB canonical junction mRNA decrease, read-out: MYB CJ (decrease in canonical junction mRNA, IC50)
[9] = canonical junction qPCR panel, Table 4, read-out: MYB IC50 (decrease in CJ mRNA levels)

Row | SMILES | AC50 ([1]; RT-qPCR) [nM] | pIC50 [1, 6] | pIC50 [1, 7] | AC50 ([2]; RT-qPCR) [nM] | pIC50 [2, 8] | pIC50 [2, 9] | pIC50 [3] | pIC50 [4] | Effect of Exemplary Compounds on Cell Viability, K562 [5]
1 | C[C@H]1CN(c2cc(F)c3nc(-c4cc(F)c5nn(C)cc5c4)ccc3c2)CCN1 (single isomer, unassigned) [Compound 789] | 100 to 1000 | 6.00 to 7.00 | 6.00 to 7.00 | < 100 | > 7.00 | > 7.00 | > 7.00 | 6.00 to 7.00 | B (B represents 100-1000 nM)
2 | CCc1nc2cc(O)c(-c3ccc4nc(N5CC[C@@H](NC(C)(C)C)C5)ccc4n3)cc2o1 (single isomer, unassigned) [Compound 808] | 1000 to 10000 | 5.00 to 6.00 | 5.00 to 6.00 | 1000 to 10000 | 5.00 to 6.00 | 5.00 to 6.00 | 6.00 to 7.00 | 5.00 to 6.00 | C (C represents 1000-9999 nM)
3 | CCc1nc2cc(O)c(-c3ccc4nc(N5CC[C@H](NC(C)(C)C)C5)ccc4n3)cc2o1 (single isomer, unassigned) [Compound 809] | 1000 to 10000 | 5.00 to 6.00 | 5.00 to 6.00 | 1000 to 10000 | 5.00 to 6.00 | 5.00 to 6.00 | 5.00 to 6.00 | 5.00 to 6.00 | C (C represents 1000-9999 nM)
4 | Cc1c(O)c(-c2ncc3cc(N4C[C@H](C)NC5(CC5)C4)ccc3n2)cc2cn(C)nc12 (single isomer, unassigned) [Compound 810] | 1000 to 10000 | 5.00 to 6.00 | 5.00 to 6.00 | 100 to 1000 | 6.00 to 7.00 | 6.00 to 7.00 | > 7.00 | 5.00 to 6.00 | B (B represents 100-1000 nM)
5 | Cc1c(O)c(-c2ncc3cc(N4C[C@@H](C)NC5(CC5)C4)ccc3n2)cc2cn(C)nc12 (single isomer, unassigned) [Compound 811] | 1000 to 10000 | 5.00 to 6.00 | 5.00 to 6.00 | < 100 | > 7.00 | > 7.00 | > 7.00 | < 5.00 | B (B represents 100-1000 nM)
6 | C[C@H]1CN(c2ccc3nc(-c4cc5cn(C)nc5cc4O)ncc3c2)CC2(CC2)N1 (single isomer, unassigned) [Compound 812] | 1000 to 10000 | 5.00 to 6.00 | 5.00 to 6.00 | 100 to 1000 | 6.00 to 7.00 | 6.00 to 7.00 | > 7.00 | 5.00 to 6.00 | B (B represents 100-1000 nM)
7 | C[C@@H]1CN(c2ccc3nc(-c4cc5cn(C)nc5cc4O)ncc3c2)CC2(CC2)N1 (single isomer, unassigned) [Compound 813] | > 10000 | < 5.00 | < 5.00 | 100 to 1000 | 6.00 to 7.00 | 6.00 to 7.00 | > 7.00 | < 5.00 | B (B represents 100-1000 nM)
8 | Cc1cn2cc(-c3ncc4cc(N5C[C@H](C)NC6(CC6)C5)ccc4n3)cc(F)c2n1 (single isomer, unassigned) [Compound 814] | 1000 to 10000 | 6.00 to 7.00 | 6.00 to 7.00 | 100 to 1000 | 6.00 to 7.00 | 6.00 to 7.00 | > 7.00 | < 5.00 | B (B represents 100-1000 nM)
9 | Cc1cn2cc(-c3ncc4cc(N5C[C@@H](C)NC6(CC6)C5)ccc4n3)cc(F)c2n1 (single isomer, unassigned) [Compound 815] | 1000 to 10000 | 5.00 to 6.00 | 5.00 to 6.00 | 100 to 1000 | 6.00 to 7.00 | 6.00 to 7.00 | > 7.00 | < 5.00 | B (B represents 100-1000 nM)
